Series [1] concerns the target T1, hERG (Kv11.1, KCNH2) (Homo sapiens, UniProt Q12809). Put plainly: in vitro.
Description: MMV: Malaria Box compounds were tested for inhibition of the human ether a go-go related gene (hERG), Kv11.1 channel, using IonWorks 384-well patch clamp electrophysiology at 1.1uM (3 independent assay plates up to 12 cells per concentration).
The target of series [2] is T1, hERG (Kv11.1, KCNH2). Put plainly: in vitro. This is another data set of the same source.
Description: MMV: Malaria Box compounds were tested for inhibition of the human ether a go-go related gene (hERG), Kv11.1 channel, using IonWorks 384-well patch clamp electrophysiology at 11.1uM (3 independent assay plates up to 12 cells per concentration).

The source made the active and inactive calls. No rule for the calls is given here.

The term inhibition denotes the drop in the measured response relative to a control, in per cent.

T1 sequence (Q12809 whole entry): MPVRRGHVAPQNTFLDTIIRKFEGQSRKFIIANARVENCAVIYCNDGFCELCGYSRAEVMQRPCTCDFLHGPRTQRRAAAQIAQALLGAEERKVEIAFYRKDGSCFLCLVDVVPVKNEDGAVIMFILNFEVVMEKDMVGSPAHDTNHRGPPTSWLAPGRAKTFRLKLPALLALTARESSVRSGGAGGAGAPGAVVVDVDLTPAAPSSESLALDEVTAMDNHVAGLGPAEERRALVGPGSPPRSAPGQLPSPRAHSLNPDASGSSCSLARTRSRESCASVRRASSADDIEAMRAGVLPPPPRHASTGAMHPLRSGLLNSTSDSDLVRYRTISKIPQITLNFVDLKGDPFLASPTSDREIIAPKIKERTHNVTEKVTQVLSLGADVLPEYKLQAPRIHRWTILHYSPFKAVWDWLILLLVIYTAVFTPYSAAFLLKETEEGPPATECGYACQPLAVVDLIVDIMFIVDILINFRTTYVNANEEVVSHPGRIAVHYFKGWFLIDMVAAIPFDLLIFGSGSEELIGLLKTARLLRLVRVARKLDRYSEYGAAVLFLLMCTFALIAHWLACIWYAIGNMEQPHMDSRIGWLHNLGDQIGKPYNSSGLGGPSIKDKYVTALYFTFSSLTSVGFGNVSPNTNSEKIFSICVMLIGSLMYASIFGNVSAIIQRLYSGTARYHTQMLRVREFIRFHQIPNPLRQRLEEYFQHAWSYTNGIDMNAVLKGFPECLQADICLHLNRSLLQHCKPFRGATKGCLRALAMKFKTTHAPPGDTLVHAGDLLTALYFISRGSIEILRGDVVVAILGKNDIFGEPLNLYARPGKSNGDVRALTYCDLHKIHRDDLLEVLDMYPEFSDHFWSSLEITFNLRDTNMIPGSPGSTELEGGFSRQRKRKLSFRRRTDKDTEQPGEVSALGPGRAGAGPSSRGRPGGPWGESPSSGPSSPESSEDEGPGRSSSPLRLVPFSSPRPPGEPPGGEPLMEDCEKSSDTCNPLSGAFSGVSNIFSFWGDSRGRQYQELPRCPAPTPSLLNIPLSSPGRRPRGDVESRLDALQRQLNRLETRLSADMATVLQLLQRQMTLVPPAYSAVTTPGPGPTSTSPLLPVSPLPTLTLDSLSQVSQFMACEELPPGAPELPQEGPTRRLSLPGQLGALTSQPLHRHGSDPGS

With `COc1ccc2c(c1)OC(O)(C(F)(F)C(F)(F)F)CC2=O` (configuration not stated), at hERG (Kv11.1, KCNH2) [1], the inhibition at 1.1 µM stood at 4%. Also, at hERG (Kv11.1, KCNH2) [2], the inhibition at 11.1 µM stood at 25%.

Turning to `O=C1CC(O)(C(F)(F)C(F)(F)F)Oc2ccccc21` (configuration not stated), the inhibition at 1.1 µM against hERG (Kv11.1, KCNH2) [1] is -9%. For the same molecule, on hERG (Kv11.1, KCNH2) [2], the inhibition at 11.1 µM was 3% (inactive).

In the case of `Cc1ccc(OCCCCCCNCCO)c(C)c1`, the inhibition at 1.1 µM on hERG (Kv11.1, KCNH2) [1] is -6%. Besides, the inhibition at 11.1 µM on hERG (Kv11.1, KCNH2) [2] was 21% (inactive).

In the case of `O=C(NC(c1ccccc1)c1ccc2cccnc2c1O)c1ccccc1` (configuration not stated), the inhibition at 1.1 µM against hERG (Kv11.1, KCNH2) [1] was determined as 1%. The inhibition at 11.1 µM at hERG (Kv11.1, KCNH2) [2] was 17% (inactive).

Turning to `CC1CC2=C(CC1CNCCCN(C)C)C(C)(C)CCC2` (configuration not stated), the inhibition at 1.1 µM against hERG (Kv11.1, KCNH2) [1] was -3%. Further, the inhibition at 11.1 µM at hERG (Kv11.1, KCNH2) [2] is 77% (active).

In the case of `CCOC(=O)c1cnc2ccc(OC)cc2c1Nc1ccc(N2CCN(C)CC2)cc1`, the inhibition at 1.1 µM on hERG (Kv11.1, KCNH2) [1] amounted to 15%. In addition, at hERG (Kv11.1, KCNH2) [2], the inhibition at 11.1 µM is 15% (inactive).

For `COc1ccc(C2=C(c3ccc(OC)cc3)C3(c4ccccc4)C(=O)C2(c2ccccc2)C2C(=O)N(c4ccc(C)cc4)C(=O)C23)cc1` (configuration not stated), at hERG (Kv11.1, KCNH2) [1], the inhibition at 1.1 µM is -8%. The inhibition at 11.1 µM at hERG (Kv11.1, KCNH2) [2] is 6% (inactive).

On to `Cc1ccnc(NC(c2cccc(OCc3ccccc3)c2)c2ccc3cccnc3c2O)c1` (configuration not stated), for which, on hERG (Kv11.1, KCNH2) [1], the inhibition at 1.1 µM turned out to be 6%. On hERG (Kv11.1, KCNH2) [2], the inhibition at 11.1 µM was 24% (inactive).

Consider `COc1ccc2c(c1)C1(Nc3ccccc3-c3nc4ccccc4n31)C(=O)N2` (configuration not stated), for which the inhibition at 1.1 µM at hERG (Kv11.1, KCNH2) [1] was determined as 4%. For the same molecule, the inhibition at 11.1 µM on hERG (Kv11.1, KCNH2) [2] was 20% (inactive).

Consider `CCOc1ccc(-c2nonc2NC(=O)c2cccc(C)c2)cc1OCC`, for which the inhibition at 1.1 µM against hERG (Kv11.1, KCNH2) [1] was -1%. On hERG (Kv11.1, KCNH2) [2], the inhibition at 11.1 µM was 0% (inactive).

With `COc1ccc2nc(C)cc(Nc3cccc(O)c3)c2c1`, the inhibition at 1.1 µM on hERG (Kv11.1, KCNH2) [1] was 32%. For the same molecule, on hERG (Kv11.1, KCNH2) [2], the inhibition at 11.1 µM is 83% (active).

Turning to `OC1=C2C(=Nc3ccccc3SC2c2ccc(Br)cc2)c2ccccc21` (configuration not stated), at hERG (Kv11.1, KCNH2) [1], the inhibition at 1.1 µM was determined as 3%. Also, the inhibition at 11.1 µM at hERG (Kv11.1, KCNH2) [2] was 10% (inactive).

For the molecule `Cc1ccc(Cn2c(N3CCC(C(=O)NCc4cccs4)CC3)nc3ccccc32)cc1`, the inhibition at 1.1 µM at hERG (Kv11.1, KCNH2) [1] worked out at 105%. Further, the inhibition at 11.1 µM against hERG (Kv11.1, KCNH2) [2] amounted to 103%.

On to `CC(C)(C)c1ccc2c(c1)CN(Cc1ccc(Cl)cc1)CO2`, for which the inhibition at 1.1 µM against hERG (Kv11.1, KCNH2) [1] amounted to 25%. Also, the inhibition at 11.1 µM on hERG (Kv11.1, KCNH2) [2] was 12% (inactive).

For the molecule `Oc1ccc(C(=C(Cl)Cl)c2ccc(O)cc2)cc1`, the inhibition at 1.1 µM against hERG (Kv11.1, KCNH2) [1] was determined as 7%. Further, the inhibition at 11.1 µM at hERG (Kv11.1, KCNH2) [2] is 15% (inactive).

As for `CC1CN(C(=O)c2sc3ccccc3c2Cl)CC(C)O1` (configuration not stated), the inhibition at 1.1 µM at hERG (Kv11.1, KCNH2) [1] amounted to 4%. Besides, the inhibition at 11.1 µM on hERG (Kv11.1, KCNH2) [2] was 10% (inactive).

Consider `CN1C=C(c2ccc3ccccc3n2)C(c2c[nH]c3ccccc23)c2ccccc21` (configuration not stated), for which the inhibition at 1.1 µM at hERG (Kv11.1, KCNH2) [1] worked out at 8%. For the same molecule, at hERG (Kv11.1, KCNH2) [2], the inhibition at 11.1 µM is 89% (active).

In the case of `COc1ccc(C=C2SC(=N)N(c3ccccc3OC)C2=O)cc1`, at hERG (Kv11.1, KCNH2) [1], the inhibition at 1.1 µM amounted to 7%. The inhibition at 11.1 µM against hERG (Kv11.1, KCNH2) [2] was 43%.

On to `O=C(c1ccccc1F)N(Cc1ccc(Cl)cc1)c1ccccn1`, for which the inhibition at 1.1 µM against hERG (Kv11.1, KCNH2) [1] was 7%. At hERG (Kv11.1, KCNH2) [2], the inhibition at 11.1 µM is 22% (inactive).

As to `COc1cc(SC)ccc1C(=O)N1CCCC(C)C1` (configuration not stated), the inhibition at 1.1 µM against hERG (Kv11.1, KCNH2) [1] was found to be 16%. On hERG (Kv11.1, KCNH2) [2], the inhibition at 11.1 µM is 8% (inactive).

Consider `COc1ccc(-c2cc(=O)oc3c4c(ccc23)OCN(Cc2ccc(F)cc2)C4)cc1`, for which the inhibition at 1.1 µM against hERG (Kv11.1, KCNH2) [1] amounted to 24%. Moreover, on hERG (Kv11.1, KCNH2) [2], the inhibition at 11.1 µM is 16% (inactive).

For `COc1ccc(C(C)=O)cc1N1C(=O)C2C(C1=O)C1(c3ccccc3)C(=O)C2(c2ccccc2)C(c2ccc(C)cc2)=C1c1ccc(C)cc1` (configuration not stated), at hERG (Kv11.1, KCNH2) [1], the inhibition at 1.1 µM is -5%. For the same molecule, the inhibition at 11.1 µM at hERG (Kv11.1, KCNH2) [2] was -1% (inactive).

On to `COc1ccc(C(=O)C2CC2c2ccc(Cl)cc2)cc1` (configuration not stated), for which, at hERG (Kv11.1, KCNH2) [1], the inhibition at 1.1 µM is -6%. The inhibition at 11.1 µM on hERG (Kv11.1, KCNH2) [2] is 13% (inactive).

Turning to `Cc1ccc(-c2nc3ccccc3o2)cc1NCc1cc(Cc2ccccc2)ccc1O`, the inhibition at 1.1 µM against hERG (Kv11.1, KCNH2) [1] is 11%. The inhibition at 11.1 µM on hERG (Kv11.1, KCNH2) [2] was 10% (inactive).

For the molecule `CC(C)=CCN1CCC(C(=O)Nc2ccc(-c3nc4ccccc4[nH]3)cc2)CC1`, the inhibition at 1.1 µM against hERG (Kv11.1, KCNH2) [1] is 0%. For the same molecule, the inhibition at 11.1 µM against hERG (Kv11.1, KCNH2) [2] is 29%.

For the molecule `CCN1CCN(c2cc(C)c3cc(NC(=O)c4ccc(OC)c(OC)c4)ccc3n2)CC1`, the inhibition at 1.1 µM against hERG (Kv11.1, KCNH2) [1] is 15%. Moreover, the inhibition at 11.1 µM at hERG (Kv11.1, KCNH2) [2] is 63% (active).

In the case of `Nc1nc(Nc2cccc(F)c2)nc2ccccc12`, on hERG (Kv11.1, KCNH2) [1], the inhibition at 1.1 µM was determined as 11%. Besides, the inhibition at 11.1 µM on hERG (Kv11.1, KCNH2) [2] was 59% (active).

On to `CCc1ccc(Nc2cc(C)nc3nc(C)nn23)cc1`, for which the inhibition at 1.1 µM on hERG (Kv11.1, KCNH2) [1] was -2%. For the same molecule, on hERG (Kv11.1, KCNH2) [2], the inhibition at 11.1 µM was 42%.

Turning to `COc1ccc(C2Sc3ccccc3N=C3C2=C(O)c2ccccc23)cc1` (configuration not stated), at hERG (Kv11.1, KCNH2) [1], the inhibition at 1.1 µM is -2%. Moreover, on hERG (Kv11.1, KCNH2) [2], the inhibition at 11.1 µM is 26%.

For `Cc1ccc(CN2CCC(C(=O)Nc3ccc(-c4cc5ccccc5[nH]4)cc3)CC2)o1`, the inhibition at 1.1 µM on hERG (Kv11.1, KCNH2) [1] came out at 9%. Also, the inhibition at 11.1 µM on hERG (Kv11.1, KCNH2) [2] is 88% (active).

On to `O=C(Nc1ccc(CN2CCOCC2)cc1)c1ccc(-c2cc(Cl)ccc2Cl)o1`, for which, at hERG (Kv11.1, KCNH2) [1], the inhibition at 1.1 µM stood at 8%. For the same molecule, at hERG (Kv11.1, KCNH2) [2], the inhibition at 11.1 µM is 88% (active).

Source of the values: ChEMBL document CHEMBL3301458, “MMV Malaria Box hERG screening”.
